Experimental data reported in BindingDB's records for doi:10.1016/j.bmcl.2007.12.038 (St. Jude Children'S Research Hospital, 2008).

What was measured:
[1] = Binding affinity to GST tagged human beta 2 adrenergic receptor PDZ1 domain
[2] = Binding affinity to GST tagged human CFTR PDZ2 domain

Structure (SMILES) | IC50 [1] | IC50 [2]
CCCCC(O)c1[nH]c2cc(C)c(C(=O)O)cc2c1CCc1ccccc1 (stereo unspecified) [2-(1-hydroxypentyl)-6-methyl-3-phenethyl-1H-indole-5-carboxylic acid] | 1540 µM | 160 µM
Cc1cc2[nH]c(C(O)CCCC(=O)O)c(CCc3ccccc3)c2cc1C(=O)O (stereo unspecified) [2-(4-carboxy-1-hydroxybutyl)-6-methyl-3-phenethyl-1H-indole-5-carboxylic acid] | 777 µM | 330 µM
CCCCCc1c(CO)c2cc(C)c(C(=O)O)cc2n1CCc1ccccc1 [3-(hydroxymethyl)-5-methyl-2-pentyl-1-phenethyl-1H-indole-6-carboxylic acid] | 280 µM | 380 µM
